target: human KHK-A (Homo sapiens (Human), UniProt P50053); experiment: KHK Biochemical Assay (IC50), ADP-Glo, KHK-A; settings: average of at least two separate assays
Protocol: (§1) The His-tagged fusion protein was expressed using BL21 (DE3) with IPTG induction and purified using Ni-NTA column followed by dialysis into final buffer containing 25 mM Tris-HCl pH 8.0, 250 mM NaCl.
(§2) KHK Biochemical Assay (IC50)
(§3) Compounds were tested for KHK enzyme inhibition in a high-throughput 384-well assay format using the ADP-Glo assay (Promega) in buffer consisting of 50 mM Hepes (pH 7.4), 140 mM KCl, 5 mM MgCl2 and 0.01% Triton-X. 0.2 nM. […] Compounds were serially diluted (1:3) in DMSO.
(§4) The compounds were pre-incubated with 5 μL of 2× final enzyme concentration for 30 minutes before adding 5 μL of 2× final concentration of ATP and fructose. The plates were incubated at room temperature for 4 hours before adding ADP-Glo reagent to quench the enzyme reaction, followed by incubation at room temperature for 1 hour. The ADP-Glo detection reagent was then added to the plates and luminescence was measured on the Envision plate reader after 1 hour.

human KHK-A, sequence (P50053 other isoform, or with tags, fused parts or gaps): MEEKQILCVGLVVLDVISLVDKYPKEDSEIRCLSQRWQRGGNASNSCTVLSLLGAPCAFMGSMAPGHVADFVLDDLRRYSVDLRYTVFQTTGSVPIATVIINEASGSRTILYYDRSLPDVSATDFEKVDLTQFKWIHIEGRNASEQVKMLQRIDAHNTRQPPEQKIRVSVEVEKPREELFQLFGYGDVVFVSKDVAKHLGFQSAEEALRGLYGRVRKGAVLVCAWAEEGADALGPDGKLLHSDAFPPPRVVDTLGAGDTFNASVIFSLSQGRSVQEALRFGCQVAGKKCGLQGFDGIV

Compound | IC50 [nM]
2-(3-(7,7-difluoro-2-((2S,3R)-3-hydroxy-2-methylazetidin-1-yl)-6,7-dihydro-5H-cyclopenta[d]pyrimidin-4-yl)phenylsulfonimidoyl)acetonitrile [Example 628] | 10.3

target: human KHK-C (Homo sapiens (Human), UniProt P50053); experiment: KHK Biochemical Assay (IC50), ADP-Glo, KHK-C; settings: not given
Protocol: as §1, §2, §3, §4

human KHK-C, sequence (P50053 whole entry): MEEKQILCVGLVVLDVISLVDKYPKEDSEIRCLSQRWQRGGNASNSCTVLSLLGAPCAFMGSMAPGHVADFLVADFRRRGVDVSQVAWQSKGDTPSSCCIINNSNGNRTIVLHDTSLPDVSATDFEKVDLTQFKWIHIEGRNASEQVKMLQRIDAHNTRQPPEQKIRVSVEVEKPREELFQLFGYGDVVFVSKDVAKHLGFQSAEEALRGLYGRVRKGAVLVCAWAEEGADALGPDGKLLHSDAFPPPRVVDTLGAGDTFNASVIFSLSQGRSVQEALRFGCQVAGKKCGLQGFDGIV

IC50 [nM] | Compound
13100 | C[C@H]1CCN1c1nc(N2CC3CC3C2)cc(C(F)(F)F)n1 (stereo partly drawn) [Reference Compound 1b, 3-(2-((S)-2-methylazetidin-1-yl)-6-(trifluoromethyl)pyrimidin-4-yl)-3-azabicyclo[3.1.0]hexane, reference compound]

same assay, conditions: ADP-Glo; average of at least two separate assays

IC50 [nM] | Compound
26.7 | C[C@H]1CCN1c1nc2c(c(-c3ccc4c(cnn4C(=O)CN)c3)n1)CCC2 [Example 237, (S)-2-amino-1-(5-(2-(2-methylazetidin-1-yl)-6,7-dihydro-5H-cyclopenta[d]pyrimidin-4-yl)-1H-indazol-1-yl)ethan-1-one]
68.3 | C[C@H]1CCN1c1nc2c(c(-c3ccc4nn(C(=O)CN)cc4c3)n1)CCC2 [Example 238, (S)-2-amino-1-(5-(2-(2-methylazetidin-1-yl)-6,7-dihydro-5H-cyclopenta[d]pyrimidin-4-yl)-2H-indazol-2-yl)ethan-1-one]
2.5 | C[C@H]1[C@H](O)CN1c1nc(-c2ccc3c(c2)S(=N)(=O)CCO3)c2c(n1)C(F)(F)CC2 (stereo partly drawn) [Example 818, (2S,3R)-1-[7,7-difluoro-4-(4-imino-4-oxo-2,3-dihydro-1,4λ^6-benzoxathiin-6-yl)-5,6-dihydrocyclopenta[d]pyrimidin-2-yl]-2-methyl-azetidin-3-ol]

Compound | IC50 [nM]
C[C@H]1[C@H](O)CN1c1nc(-c2ccc3c(c2)CC(C)(C)C3NS(C)(=O)=O)c2c(n1)C(F)(F)CC2 (stereo partly drawn) [Example 816, N-[5-[7,7-difluoro-2-[(2S,3R)-3-hydroxy-2-methyl-azetidin-1-yl]-5,6-dihydrocyclopenta[d]pyrimidin-4-yl]-2,2-dimethyl-indan-1-yl]methanesulfonamide] | 23.4

same assay, conditions: average of at least two separate assays

Compound | IC50 [nM]
2-(3-(7,7-difluoro-2-((2S,3R)-3-hydroxy-2-methylazetidin-1-yl)-6,7-dihydro-5H-cyclopenta[d]pyrimidin-4-yl)phenylsulfonimidoyl)acetonitrile [Example 628] | 8.8
5-(7,7-difluoro-2-((2S,3R)-3-hydroxy-2-methylazetidin-1-yl)-6,7-dihydro-5H-cyclopenta[d]pyrimidin-4-yl)-2,3-dihydrospiro[indene-1,3′-[1,4]oxazepan]-5′-one [Example 552] | 39.2
COc1c(F)cc(-c2nc(N3C[C@@H](O)[C@@H]3C)nc3c2CCC3(F)F)cc1[S@@](C)(=N)=O (single isomer, unassigned) [Example 536] | 6.1
COc1c(F)cc(-c2nc(N3C[C@@H](O)[C@@H]3C)nc3c2CCC3(F)F)cc1[S@](C)(=N)=O (single isomer, unassigned) [Example 537] | 21.4
CS(=O)(=O)N[C@H]1COc2cc(-c3nc(N4CC[C@H]4C(F)F)nc4c3CCC4(F)F)ccc21 (single isomer, unassigned) [Example 546] | 23.9
C[C@H]1[C@H](O)CN1c1nc(-c2ccc3c(c2)C(F)(F)C[C@H]3NS(C)(=O)=O)c2c(n1)C(F)(F)CC2 (single isomer, unassigned) [Example 635] | 2.9
C[C@H]1[C@H](F)CN1c1nc(-c2ccc3c(c2)S(=O)(=O)C[C@H]3NS(C)(=O)=O)c2c(n1)C(F)(F)CC2 (single isomer, unassigned) [Example 680] | 1.4
C[C@@H]1N(c2nc(-c3ccc4c(c3)S(=O)(=O)C[C@@H]4NS(C)(=O)=O)c3c(n2)C(F)(F)CC3)CC1(F)F (single isomer, unassigned) [Example 681] | 0.5
C[C@@H]1N(c2nc(-c3ccc4c(c3)S(=O)(=O)C[C@H]4NS(C)(=O)=O)c3c(n2)C(F)(F)CC3)CC1(F)F (single isomer, unassigned) [Example 682] | 4
CS(=O)(=O)N[C@H]1COc2cc(-c3nc(N4C[C@@H](O)[C@@H]4CF)nc4c3CCC4(F)F)ccc21 [Example 484, N-((R)-6-(7,7-difluoro-2-((2R,3R)-2-(fluoromethyl)-3-hydroxyazetidin-1-yl)-6,7-dihydro-5H-cyclopenta[d]pyrimidin-4-yl)-2,3-dihydrobenzofuran-3-yl)methanesulfonamide] | 1.2
COc1c(F)cc(-c2nc(N3C[C@@H](O)[C@@H]3C)nc3c2CCC3(F)F)cc1S(C)(=N)=O (stereo partly drawn) [Example 535, (5-(7,7-difluoro-2-((2S,3R)-3-hydroxy-2-methylazetidin-1-yl)-6,7-dihydro-5H-cyclopenta[d]pyrimidin-4-yl)-3-fluoro-2-methoxyphenyl)(imino)(methyl)-λ^6-sulfanone] | 15.8
CS(=O)(=O)N[C@H]1COc2cc(-c3nc(N4CCC4C(F)F)nc4c3CCC4(F)F)ccc21 (stereo partly drawn) [Example 544, N-((3R)-6-(2-(2-(difluoromethyl)azetidin-1-yl)-7,7-difluoro-6,7-dihydro-5H-cyclopenta[d]pyrimidin-4-yl)-2,3-dihydrobenzofuran-3-yl)methanesulfonamide] | 1.1
C[C@H]1[C@H](O)CN1c1nc(-c2ccc3c(c2)C(F)(F)CC3NS(C)(=O)=O)c2c(n1)C(F)(F)CC2 (stereo partly drawn) [Example 633, N-(5-(7,7-difluoro-2-((2S,3R)-3-hydroxy-2-methylazetidin-1-yl)-6,7-dihydro-5H-cyclopenta[d]pyrimidin-4-yl)-3,3-difluoro-2,3-dihydro-1H-inden-1-yl)methanesulfonamide] | 2
NC1(c2ccc(-c3nc(N4C[C@@H](O)[C@@H]4CF)nc4c3CCC4(F)F)cc2)COC1 [Example 677, (2R,3R)-1-[4-[4-(3-aminooxetan-3-yl)phenyl]-7,7-difluoro-5,6-dihydroeyelopenta[d]pyrimidin-2-yl]-2-(fluoromethyl)azetidin-3-ol] | 4.8

Second part, the compound after the results:

IC50 [nM] | Compound
32 | C[C@H]1[C@H](O)CN1c1nc(-c2ccc(OC(F)F)c([S@](C)(=N)=O)c2)c2c(n1)C(F)(F)CC2 (single isomer, unassigned) [Example 534]
13.5 | COc1ccc(-c2nc(N3C[C@@H](O)[C@@H]3C)nc3c2CCC3(F)F)cc1[S@](=N)(=O)C1CC1 (single isomer, unassigned) [Example 540]
5 | C[C@H]1[C@H](O)CN1c1nc(-c2ccc3c(c2)CC[C@]32COCC(=O)N2)c2c(n1)C(F)(F)CC2 (single isomer, unassigned) [Example 550]
4.3 | C[C@H]1CCN1c1nc(-c2ccc([C@H](N)CS(C)(=O)=O)cc2)c2c(n1)C(F)(F)CC2 (single isomer, unassigned) [Example 775]
2.8 | C[C@H]1CCN1c1nc(-c2ccc([C@@H](N)CS(C)(=O)=O)cc2)c2c(n1)C(F)(F)CC2 (single isomer, unassigned) [Example 776]
> 5000 | NC(=O)c1ccc(-c2nc(N3CC4(CCC4)C3)nc3c2CCC3)cc1 [Example 416, 4-(2-(2-azaspiro[3.3]heptan-2-yl)-6,7-dihydro-5H-cyclopenta[d]pyrimidin-4-yl)benzamide]
> 5000 | NC(=O)c1ccc(-c2nc(N3CC4(COC4)C3)nc3c2CCC3)cc1 [Example 417, 4-(2-(2-oxa-6-azaspiro[3.3]heptan-6-yl)-6,7-dihydro-5H-cyclopenta[d]pyrimidin-4-yl)benzamide]
> 5000 | C[C@H]1CCC(=O)N1c1nc2c(c(-c3ccc(C(N)=O)cc3)n1)CCC2 [Example 419, (S)-4-(2-(2-methyl-5-oxopyrrolidin-1-yl)-6,7-dihydro-5H-cyclopenta[d]pyrimidin-4-yl)benzamide]
121 | C[C@H]1[C@H](O)CN1c1nc2c(c(-c3ccc4cnc(N)cc4c3)n1)CCC2 [Example 448, (2S,3R)-1-[4-(3-amino-6-isoquinolyl)-6,7-dihydro-5H-cyclopenta[d]pyrimidin-2-yl]-2-methyl-azetidin-3-ol]
57.2 | N#CC1CCN1c1nc2c(c(-c3ccc(C(N)=O)cc3)n1)CCC2 (stereo not drawn) [Example 458, 4-(2-(2-cyanoazetidin-1-yl)-6,7-dihydro-5H-cyclopenta[d]pyrimidin-4-yl)benzamide]
22.6 | C[C@H]1[C@H](O)CN1c1nc(-c2ccc3c(c2)CC[C@@]32NC(=O)NC2=O)c2c(n1)C(F)(F)CC2 [Example 485, (R)-5′-(7,7-difluoro-2-((2S,3R)-3-hydroxy-2-methylazetidin-1-yl)-6,7-dihydro-5H-cyclopenta[d]pyrimidin-4-yl)-2′,3′-dihydrospiro[imidazolidine-4,1′-indene]-2,5-dione]
2.3 | COc1ccc(-c2nc(N3C[C@@H](O)[C@@H]3C)nc3c2CCC3(F)F)cc1S(=N)(=O)C1CC1 (stereo partly drawn) [Example 538, cyclopropyl(5-(7,7-difluoro-2-((2S,3R)-3-hydroxy-2-methylazetidin-1-yl)-6,7-dihydro-5H-cyclopenta[d]pyrimidin-4-yl)-2-methoxyphenyl)(imino)-λ^6-sulfanone]
0.9 | C[C@H]1CCN1c1nc(-c2ccc3c(c2)C(NS(C)(=O)=O)CC3)c2c(n1)C(F)(F)CC2 (stereo partly drawn) [Example 607]
3.8 | C[C@H]1CCN1c1nc(-c2cccc(NS(C)(=N)=O)c2)c2c(n1)C(F)(F)CC2 (stereo partly drawn) [Example 684, 4-[3-[(amino-methyl-oxo-λ^6-sulfanylidene)amino]phenyl]-7,7-difluoro-2-[(2S)-2-methylazetidin-1-yl]-5,6-dihydrocyclopenta[d]pyrimidine]
3.8 | C[C@H]1[C@H](O)CN1c1nc(-c2cc3c(c(S(C)(=N)=O)c2)OCC3)c2c(n1)C(F)(F)CC2 (stereo partly drawn) [Example 716, (5-(7,7-difluoro-2-((2S,3R)-3-hydroxy-2-methylazetidin-1-yl)-6,7-dihydro-5H-cyclopenta[d]pyrimidin-4-yl)-2,3-dihydrobenzofuran-7-yl)(imino)(methyl)-λ^6-sulfanone]
> 500 | C[C@H]1CCN1c1nc2c(c(-c3ccc(Cl)c(S(C)(=N)=O)c3)n1)CCC2 (stereo partly drawn) [Example 727]

Source: US12410160B2 (Gilead Sciences, Inc., priority 2021, dated 2025)
